Data from ChEMBL document CHEMBL1153335, “Incorporation of neutral C-terminal residues in 3-amidinophenylalanine-derived matriptase inhibitors” (Bioorg Med Chem Lett, 2009).

How the values were obtained:
[1] = target: Urokinase-type plasminogen activator (Homo sapiens, UniProt P00749); test: Inhibition of uPA
Plasminogen = Plasminogen (Homo sapiens, UniProt P00747); test: Inhibition of plasmin
[2] = target: T1, Suppressor of tumorigenicity 14 protein (Homo sapiens, UniProt Q9Y5Y6); test: Inhibition of matriptase
T1 sequence (Q9Y5Y6 whole entry): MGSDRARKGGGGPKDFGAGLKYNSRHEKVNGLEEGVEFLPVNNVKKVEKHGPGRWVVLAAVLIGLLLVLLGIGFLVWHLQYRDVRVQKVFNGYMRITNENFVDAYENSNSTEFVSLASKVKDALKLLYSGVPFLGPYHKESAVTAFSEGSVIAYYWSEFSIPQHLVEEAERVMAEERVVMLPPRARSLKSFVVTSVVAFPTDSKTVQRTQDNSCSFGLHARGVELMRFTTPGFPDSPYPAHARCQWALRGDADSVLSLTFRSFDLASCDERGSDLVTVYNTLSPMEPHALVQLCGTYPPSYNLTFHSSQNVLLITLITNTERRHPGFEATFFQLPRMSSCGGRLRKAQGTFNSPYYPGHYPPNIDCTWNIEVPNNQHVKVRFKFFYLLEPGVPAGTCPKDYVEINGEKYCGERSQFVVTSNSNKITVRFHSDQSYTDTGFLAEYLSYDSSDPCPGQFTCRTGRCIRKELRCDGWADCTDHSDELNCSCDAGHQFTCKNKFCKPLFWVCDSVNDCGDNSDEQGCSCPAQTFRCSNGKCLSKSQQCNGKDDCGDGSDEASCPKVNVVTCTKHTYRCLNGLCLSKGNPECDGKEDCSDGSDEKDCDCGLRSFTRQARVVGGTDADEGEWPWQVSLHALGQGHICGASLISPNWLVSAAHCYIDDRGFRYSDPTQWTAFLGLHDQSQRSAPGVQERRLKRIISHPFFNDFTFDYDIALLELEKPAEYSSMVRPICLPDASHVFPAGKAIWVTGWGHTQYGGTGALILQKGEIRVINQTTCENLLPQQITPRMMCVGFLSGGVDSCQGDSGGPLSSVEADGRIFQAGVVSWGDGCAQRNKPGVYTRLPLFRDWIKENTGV

Coagulation factor X = Coagulation factor X (Homo sapiens, UniProt P00742); test: Inhibition of factor 10a
Prothrombin = Prothrombin (Homo sapiens, UniProt P00734); test: Inhibition of thrombin
Rattus norvegicus [3] = test: Cmax in rat assessed as melagatran level at 20 mg/kg, po after 120 mins; assay type: ADME, organism-based; design: dose 20 mg/kg, route oral; conditions: in vivo, 2 h
Rattus norvegicus [4] = test: Cmax in rat assessed as N-hydroxy-melagatran level at 20 mg/kg, po after 120 mins; assay type: ADME, organism-based; design: dose 20 mg/kg, route oral; conditions: in vivo, 2 h

Chain of Coagulation factor X (P00742 41-179 limits assumed): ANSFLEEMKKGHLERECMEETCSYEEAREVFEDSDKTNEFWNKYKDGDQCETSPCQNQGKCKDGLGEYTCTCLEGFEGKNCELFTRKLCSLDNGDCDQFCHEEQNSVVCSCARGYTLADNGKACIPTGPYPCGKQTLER
Chain of Coagulation factor X (P00742 235-488 limits assumed): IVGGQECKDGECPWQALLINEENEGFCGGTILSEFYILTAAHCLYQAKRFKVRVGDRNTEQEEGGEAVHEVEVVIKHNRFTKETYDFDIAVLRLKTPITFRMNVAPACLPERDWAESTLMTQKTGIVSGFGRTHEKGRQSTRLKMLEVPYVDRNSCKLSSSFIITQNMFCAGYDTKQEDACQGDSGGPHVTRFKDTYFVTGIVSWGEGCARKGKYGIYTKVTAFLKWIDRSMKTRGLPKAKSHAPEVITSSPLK
Chain of Plasminogen (P00747 97-580 limits assumed): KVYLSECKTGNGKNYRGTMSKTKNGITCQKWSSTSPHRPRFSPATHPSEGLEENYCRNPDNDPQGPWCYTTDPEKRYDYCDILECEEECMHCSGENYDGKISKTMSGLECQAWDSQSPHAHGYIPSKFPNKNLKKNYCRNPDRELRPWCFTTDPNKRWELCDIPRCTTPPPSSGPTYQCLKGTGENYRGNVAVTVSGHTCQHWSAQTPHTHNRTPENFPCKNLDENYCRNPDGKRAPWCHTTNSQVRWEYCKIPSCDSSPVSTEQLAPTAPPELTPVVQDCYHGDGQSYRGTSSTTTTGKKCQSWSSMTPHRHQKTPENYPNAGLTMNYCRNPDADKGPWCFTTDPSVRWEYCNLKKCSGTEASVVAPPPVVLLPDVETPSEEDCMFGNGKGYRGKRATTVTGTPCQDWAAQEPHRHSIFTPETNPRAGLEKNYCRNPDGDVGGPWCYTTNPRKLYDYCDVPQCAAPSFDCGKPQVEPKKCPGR
Chain of Plasminogen (P00747 581-810 limits assumed): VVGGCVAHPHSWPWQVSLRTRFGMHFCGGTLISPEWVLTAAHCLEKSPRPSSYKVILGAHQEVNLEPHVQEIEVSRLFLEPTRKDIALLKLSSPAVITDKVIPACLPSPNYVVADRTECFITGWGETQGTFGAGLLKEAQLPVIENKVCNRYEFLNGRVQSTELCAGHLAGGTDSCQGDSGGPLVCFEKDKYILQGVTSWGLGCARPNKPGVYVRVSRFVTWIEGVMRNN

Row | SMILES | Ki [1] [µM] | Ki (Plasminogen) [µM] | Ki [2] [µM] | Ki (Coagulation factor X) [µM] | Ki (Prothrombin) [µM] | Cmax (Rattus norvegicus [3]) [nM] | Cmax (Rattus norvegicus [4]) [nM]
1 | CC1CCN(C(=O)[C@H](Cc2cccc(C(=N)N)c2)NS(=O)(=O)c2cccc(NC(=O)CCN)c2)CC1 | 3 | 6.2 | 0.053 | 4.4 | 0.11 | – | –
2 | CNC(=O)CCC(=O)N1CCN(C(=O)[C@H](Cc2cccc(C(=N)N)c2)NS(=O)(=O)c2cccc(NC(=O)CCN)c2)CC1 | 16.9 | 3.6 | 0.053 | 44 | 29 | – | –
3 | N=C(N)c1cccc(C[C@H](NS(=O)(=O)c2cccc(NC(=O)CCN)c2)C(=O)N2CCCC[C@H]2C(=O)O)c1 | 193 | 79 | 11 | 30 | 159 | – | –
4 | N=C(N)c1cccc(C[C@H](NS(=O)(=O)c2cccc(NC(=O)CCN)c2)C(=O)N2CCC(Cc3ccccc3)CC2)c1 | 2.2 | 2.8 | 0.017 | 3.4 | 0.35 | – | –
5 | COC(=O)CCCC1CCN(C(=O)[C@H](Cc2cccc(C(=N)N)c2)NS(=O)(=O)c2cccc(NC(=O)CCN)c2)CC1 | 2.5 | 2.8 | – | 6.1 | 0.6 | – | –
6 | N=C(N)c1cccc(C[C@H](NS(=O)(=O)c2cccc(NC(=O)CCN)c2)C(=O)N2CCCCC2)c1 | 2.6 | 3.3 | 0.033 | 10 | 0.27 | – | –
7 | N=C(N)c1cccc(C[C@H](NS(=O)(=O)c2cccc(NC(=O)CCN)c2)C(=O)N2CCC(C(N)=O)CC2)c1 | 3.3 | 1.2 | 0.013 | 2.5 | 1.25 | – | –
8 | N=C(N)c1cccc(C[C@H](NS(=O)(=O)c2cccc(NC(=O)CCN)c2)C(=O)N2CCC(CCCC(N)=O)CC2)c1 | 2.1 | 2.9 | – | 8.2 | 0.67 | – | –
9 | N=C(N)c1cccc(C[C@H](NS(=O)(=O)c2cccc(NC(=O)CCN)c2)C(=O)N2CCCC(C(N)=O)C2)c1 (some centres not stated) | 7.4 | 1.3 | – | 15 | 2.1 | – | –
10 | N=C(N)c1cccc(C[C@H](NS(=O)(=O)c2cccc(NC(=O)CCN)c2)C(=O)N2CCC(CCCC(=O)O)CC2)c1 | 17 | 3.3 | – | 18 | 14 | – | –
11 | CCOC(=O)CN[C@@H](C(=O)N1CC[C@H]1C(=O)NCc1ccc(/C(N)=N\O)cc1)C1CCCCC1 [XIMELAGATRAN] | – | – | – | – | – | 1000 | 1100
12 | CCOC(=O)N1CCN(C(=O)[C@H](Cc2cccc(C(=N)N)c2)NS(=O)(=O)c2cccc(NC(=O)CCN)c2)CC1 | 9.2 | 13.4 | 0.065 | 26 | 5.1 | – | –
13 | N=C(N)c1cccc(C[C@H](NS(=O)(=O)c2cccc(NC(=O)CCN)c2)C(=O)N2CCN(c3ccc(O)cc3)CC2)c1 | 8.37 | 2.5 | 0.15 | 2.5 | 14.5 | – | –

The remaining compounds from weak to strong by Ki [1], led by results:

Row | Ki [1] [µM] | Ki (Plasminogen) [µM] | Ki [2] [µM] | Ki (Coagulation factor X) [µM] | Ki (Prothrombin) [µM] | Cmax (Rattus norvegicus [3]) [nM] | Cmax (Rattus norvegicus [4]) [nM] | SMILES
14 | 126 | 69.4 | 2.4 | 127 | 10.6 | – | – | COC(=O)[C@@H]1CCCCN1C(=O)[C@H](Cc1cccc(C(=N)N)c1)NS(=O)(=O)c1cccc(NC(=O)CCN)c1
15 | 76 | 4.9 | 0.1 | 0.1 | 24.2 | – | – | COC(=O)[C@H]1CCCCN1C(=O)[C@H](Cc1cccc(C(=N)N)c1)NS(=O)(=O)c1cccc(NC(=O)CCN)c1
16 | 34.5 | 4.5 | 0.47 | 17 | 0.395 | – | – | CC1CCCCN1C(=O)[C@H](Cc1cccc(C(=N)N)c1)NS(=O)(=O)c1cccc(NC(=O)CCN)c1 (some centres not stated)
17 | 7.3 | 9.4 | 0.18 | 11 | 2.3 | – | – | N=C(N)c1cccc(C[C@H](NS(=O)(=O)c2cccc(NC(=O)CCN)c2)C(=O)N2CCCC[C@@H]2C(=O)O)c1
18 | 3.3 | 1.6 | – | 10 | 0.85 | – | – | CNC(=O)CCCC1CCN(C(=O)[C@H](Cc2cccc(C(=N)N)c2)NS(=O)(=O)c2cccc(NC(=O)CCN)c2)CC1
19 | 3.3 | 1.3 | 0.0075 | 19 | 1.4 | – | – | N=C(N)c1cccc(C[C@H](NS(=O)(=O)c2cccc(NC(=O)CCN)c2)C(=O)N2CCN(C(=O)OCc3ccccc3)CC2)c1
20 | 0.88 | 2.56 | 0.037 | 2.1 | 71.7 | – | – | N=C(N)c1cccc(C[C@H](NS(=O)(=O)c2cccc(NC(=O)CCN)c2)C(=O)N2CCNCC2)c1
